# Data: patent US20170150719A1, “FUNGICIDAL PYRAZOLES AND THEIR MIXTURES” (E I DU PONT DE NEMOURS AND COMPANY, priority 2010, published 2017)
# Tested on: Septoria tritici
# Assay: Test F: wheat leaf blotch, preventive spray on wheat seedlings, visual disease rating
# Assay type: in vivo
# Settings: 100 = 100% disease control, 0 = no disease control relative to the controls
# Excerpt: (§1) A hyphen (-) indicates no test results.
row,SMILES,Test F rating (disease control)
1,Cc1nn(C)c(Nc2ccc(Cl)cc2Cl)c1-c1c(Cl)cccc1Cl [compound 105],100%
2,Cc1nn(C)c(Nc2ccc(F)cc2F)c1-c1ccc(C#N)cc1Cl [compound 107],100%
3,Cc1nn(C)c(Nc2ccc(F)cc2Cl)c1-c1c(Cl)cccc1Cl [compound 109],100%
4,Cc1nn(C)c(Nc2ccc(F)cc2Cl)c1-c1ccc(C#N)cc1Cl [compound 112],100%
5,Cc1nn(C)c(Nc2ccc(F)cc2F)c1-c1c(Cl)cccc1Cl [compound 113],100%
6,Cc1nn(C)c(Nc2ccc(F)cc2Br)c1-c1c(Cl)cccc1Cl [compound 114],100%
7,Cc1nn(C)c(Nc2c(Cl)cc(F)cc2Cl)c1-c1c(Cl)cccc1Cl [compound 115],99%
8,Cc1nn(C)c(Oc2ccc(C#N)cc2F)c1-c1c(F)cccc1Cl [compound 116],100%
9,Cc1nn(C)c(Oc2ccc(C#N)cc2F)c1-c1ccc(Cl)cc1F [compound 119],100%
10,Cc1nn(C)c(Nc2c(Cl)cc(F)cc2Br)c1-c1ccc(F)cc1F [compound 120],100%
11,Cc1nn(C)c(Nc2ccc(F)cc2Cl)c1-c1ccc(Cl)cc1Cl [compound 125],100%
12,Cc1nn(C)c(Oc2ccc(C#N)cc2Cl)c1-c1ccc(Cl)cc1Cl [compound 131],100%

# Tested on: Puccinia recondita f. sp. tritici
# Assay: Test G: wheat leaf rust, spray after inoculation (curative) on wheat seedlings, visual disease rating
# Assay type: in vivo
# Settings: sprayed after inoculation, 100 = 100% disease control, 0 = no disease control
# Excerpt: as §1
row,SMILES,Test G rating (disease control)
1,Cc1nn(C)c(Nc2ccc(Cl)cc2Cl)c1-c1c(Cl)cccc1Cl [compound 105],0%
2,Cc1nn(C)c(Nc2ccc(F)cc2F)c1-c1ccc(C#N)cc1Cl [compound 107],8%
3,Cc1nn(C)c(Nc2ccc(F)cc2Cl)c1-c1c(Cl)cccc1Cl [compound 109],0%
4,Cc1nn(C)c(Nc2ccc(F)cc2Cl)c1-c1ccc(C#N)cc1Cl [compound 112],8%
5,Cc1nn(C)c(Nc2ccc(F)cc2F)c1-c1c(Cl)cccc1Cl [compound 113],0%
6,Cc1nn(C)c(Nc2ccc(F)cc2Br)c1-c1c(Cl)cccc1Cl [compound 114],0%
7,Cc1nn(C)c(Nc2c(Cl)cc(F)cc2Cl)c1-c1c(Cl)cccc1Cl [compound 115],0%
8,Cc1nn(C)c(Oc2ccc(C#N)cc2F)c1-c1c(F)cccc1Cl [compound 116],0%
9,Cc1nn(C)c(Oc2ccc(C#N)cc2F)c1-c1ccc(Cl)cc1F [compound 119],0%
10,Cc1nn(C)c(Nc2c(Cl)cc(F)cc2Br)c1-c1ccc(F)cc1F [compound 120],19%
11,Cc1nn(C)c(Nc2ccc(F)cc2Cl)c1-c1ccc(Cl)cc1Cl [compound 125],82%
12,Cc1nn(C)c(Oc2ccc(C#N)cc2Cl)c1-c1ccc(Cl)cc1Cl [compound 131],0%

# Tested on: Puccinia recondita f. sp. tritici
# Assay: Test H: wheat leaf rust, preventive spray on wheat seedlings, visual disease rating
# Settings: wheat leaf rust, sprayed the day before inoculation; 100 = 100% disease control, 0 = no disease control
row,SMILES,Test H rating (disease control)
1,Cc1nn(C)c(Nc2ccc(Cl)cc2Cl)c1-c1c(Cl)cccc1Cl [compound 105],96%
2,Cc1nn(C)c(Nc2ccc(F)cc2F)c1-c1ccc(C#N)cc1Cl [compound 107],100%
3,Cc1nn(C)c(Nc2ccc(F)cc2Cl)c1-c1c(Cl)cccc1Cl [compound 109],97%
4,Cc1nn(C)c(Nc2ccc(F)cc2Cl)c1-c1ccc(C#N)cc1Cl [compound 112],100%
5,Cc1nn(C)c(Nc2ccc(F)cc2F)c1-c1c(Cl)cccc1Cl [compound 113],98%
6,Cc1nn(C)c(Nc2ccc(F)cc2Br)c1-c1c(Cl)cccc1Cl [compound 114],91%
7,Cc1nn(C)c(Nc2c(Cl)cc(F)cc2Cl)c1-c1c(Cl)cccc1Cl [compound 115],99%
8,Cc1nn(C)c(Oc2ccc(C#N)cc2F)c1-c1c(F)cccc1Cl [compound 116],100%
9,Cc1nn(C)c(Oc2ccc(C#N)cc2F)c1-c1ccc(Cl)cc1F [compound 119],91%
10,Cc1nn(C)c(Nc2c(Cl)cc(F)cc2Br)c1-c1ccc(F)cc1F [compound 120],100%
11,Cc1nn(C)c(Nc2ccc(F)cc2Cl)c1-c1ccc(Cl)cc1Cl [compound 125],98%
12,Cc1nn(C)c(Oc2ccc(C#N)cc2Cl)c1-c1ccc(Cl)cc1Cl [compound 131],96%

# Tested on: Botrytis cinerea
# Assay: Test A: tomato Botrytis, preventive spray on tomato seedlings, visual disease rating
# Settings: tomato Botrytis; 100 = 100% disease control, 0 = no disease control relative to the controls
# Protocol: General protocol for preparing test suspensions for Tests A-I: the test compounds were first dissolved in acetone in an amount equal to 3% of the final volume and then suspended at the desired concentration (in ppm) in acetone and purified water (50/50 mix by volume) containing 250 ppm of the surfactant Trem® 014 (polyhydric alcohol esters). The resulting test suspensions were then used in Tests A-I. Each test was conducted in triplicate, and the results were averaged. Spraying a 200 ppm test suspension to the point of run-off on the test plants was the equivalent of a rate of about 800 g/ha. Unless otherwise indicated, the rating values indicate a 200 ppm test suspension was used. (An asterisk “*” next to the rating value indicates a 40 ppm test suspension was used.)
# The test suspension was sprayed to the point of run-off on tomato seedlings. The following day the seedlings were inoculated with a spore suspension of Botrytis cinerea (the causal agent of tomato Botrytis) and incubated in saturated atmosphere at 20° C. for 48 h, and then moved to a growth chamber at 24° C. for 3 additional days, after which time visual disease ratings were made.
row,SMILES,Test A rating (disease control)
1,Cc1nn(C)c(Nc2ccc(Cl)cc2Cl)c1-c1c(Cl)cccc1Cl [compound 105],99%
2,Cc1nn(C)c(Nc2ccc(F)cc2F)c1-c1ccc(C#N)cc1Cl [compound 107],100%
3,Cc1nn(C)c(Nc2ccc(F)cc2Cl)c1-c1c(Cl)cccc1Cl [compound 109],100%
4,Cc1nn(C)c(Nc2ccc(F)cc2Cl)c1-c1ccc(C#N)cc1Cl [compound 112],100%
5,Cc1nn(C)c(Nc2ccc(F)cc2F)c1-c1c(Cl)cccc1Cl [compound 113],100%
6,Cc1nn(C)c(Nc2ccc(F)cc2Br)c1-c1c(Cl)cccc1Cl [compound 114],99%
7,Cc1nn(C)c(Nc2c(Cl)cc(F)cc2Cl)c1-c1c(Cl)cccc1Cl [compound 115],99%
8,Cc1nn(C)c(Oc2ccc(C#N)cc2F)c1-c1c(F)cccc1Cl [compound 116],100%
9,Cc1nn(C)c(Oc2ccc(C#N)cc2F)c1-c1ccc(Cl)cc1F [compound 119],99%
10,Cc1nn(C)c(Nc2c(Cl)cc(F)cc2Br)c1-c1ccc(F)cc1F [compound 120],100%
11,Cc1nn(C)c(Nc2ccc(F)cc2Cl)c1-c1ccc(Cl)cc1Cl [compound 125],99%
12,Cc1nn(C)c(Oc2ccc(C#N)cc2Cl)c1-c1ccc(Cl)cc1Cl [compound 131],100%

# Tested on: Alternaria solani
# Assay: Test B: tomato early blight, preventive spray on tomato seedlings, visual disease rating
# Settings: tomato early blight; 100 = 100% disease control, 0 = no disease control relative to the controls
row,SMILES,Test B rating (disease control)
1,Cc1nn(C)c(Nc2ccc(Cl)cc2Cl)c1-c1c(Cl)cccc1Cl [compound 105],0%
2,Cc1nn(C)c(Nc2ccc(F)cc2F)c1-c1ccc(C#N)cc1Cl [compound 107],80%
3,Cc1nn(C)c(Nc2ccc(F)cc2Cl)c1-c1c(Cl)cccc1Cl [compound 109],0%
4,Cc1nn(C)c(Nc2ccc(F)cc2Cl)c1-c1ccc(C#N)cc1Cl [compound 112],37%
5,Cc1nn(C)c(Nc2ccc(F)cc2F)c1-c1c(Cl)cccc1Cl [compound 113],0%
6,Cc1nn(C)c(Nc2ccc(F)cc2Br)c1-c1c(Cl)cccc1Cl [compound 114],0%
7,Cc1nn(C)c(Nc2c(Cl)cc(F)cc2Cl)c1-c1c(Cl)cccc1Cl [compound 115],0%
8,Cc1nn(C)c(Oc2ccc(C#N)cc2F)c1-c1c(F)cccc1Cl [compound 116],33%
9,Cc1nn(C)c(Oc2ccc(C#N)cc2F)c1-c1ccc(Cl)cc1F [compound 119],94%
10,Cc1nn(C)c(Nc2c(Cl)cc(F)cc2Br)c1-c1ccc(F)cc1F [compound 120],80%
11,Cc1nn(C)c(Nc2ccc(F)cc2Cl)c1-c1ccc(Cl)cc1Cl [compound 125],0%
12,Cc1nn(C)c(Oc2ccc(C#N)cc2Cl)c1-c1ccc(Cl)cc1Cl [compound 131],0%

# Tested on: Blumeria graminis f. sp. tritici
# Assay: Test I: wheat powdery mildew, preventive spray on wheat seedlings, visual disease rating
# Settings: wheat powdery mildew; 100 = 100% disease control, 0 = no disease control relative to the controls
row,SMILES,Test I rating (disease control)
1,Cc1nn(C)c(Nc2ccc(Cl)cc2Cl)c1-c1c(Cl)cccc1Cl [compound 105],99%
2,Cc1nn(C)c(Nc2ccc(F)cc2F)c1-c1ccc(C#N)cc1Cl [compound 107],97%
3,Cc1nn(C)c(Nc2ccc(F)cc2Cl)c1-c1c(Cl)cccc1Cl [compound 109],100%
4,Cc1nn(C)c(Nc2ccc(F)cc2Cl)c1-c1ccc(C#N)cc1Cl [compound 112],99%
5,Cc1nn(C)c(Nc2ccc(F)cc2F)c1-c1c(Cl)cccc1Cl [compound 113],100%
6,Cc1nn(C)c(Nc2ccc(F)cc2Br)c1-c1c(Cl)cccc1Cl [compound 114],100%
7,Cc1nn(C)c(Nc2c(Cl)cc(F)cc2Cl)c1-c1c(Cl)cccc1Cl [compound 115],93%
8,Cc1nn(C)c(Oc2ccc(C#N)cc2F)c1-c1c(F)cccc1Cl [compound 116],100%
9,Cc1nn(C)c(Oc2ccc(C#N)cc2F)c1-c1ccc(Cl)cc1F [compound 119],99%
10,Cc1nn(C)c(Nc2c(Cl)cc(F)cc2Br)c1-c1ccc(F)cc1F [compound 120],100%
11,Cc1nn(C)c(Nc2ccc(F)cc2Cl)c1-c1ccc(Cl)cc1Cl [compound 125],100%
12,Cc1nn(C)c(Oc2ccc(C#N)cc2Cl)c1-c1ccc(Cl)cc1Cl [compound 131],96%

# Tested on: Septoria nodorum
# Assay: Test E: Septoria glume blotch, preventive spray on wheat seedlings, visual disease rating
# Settings: Septoria glume blotch; 100 = 100% disease control, 0 = no disease control relative to the controls
row,SMILES,Test E rating (disease control)
1,Cc1nn(C)c(Nc2ccc(Cl)cc2Cl)c1-c1c(Cl)cccc1Cl [compound 105],0%
2,Cc1nn(C)c(Nc2ccc(F)cc2F)c1-c1ccc(C#N)cc1Cl [compound 107],73%
3,Cc1nn(C)c(Nc2ccc(F)cc2Cl)c1-c1c(Cl)cccc1Cl [compound 109],0%
4,Cc1nn(C)c(Nc2ccc(F)cc2Cl)c1-c1ccc(C#N)cc1Cl [compound 112],40%
5,Cc1nn(C)c(Nc2ccc(F)cc2F)c1-c1c(Cl)cccc1Cl [compound 113],0%
6,Cc1nn(C)c(Nc2ccc(F)cc2Br)c1-c1c(Cl)cccc1Cl [compound 114],0%
7,Cc1nn(C)c(Nc2c(Cl)cc(F)cc2Cl)c1-c1c(Cl)cccc1Cl [compound 115],0%
8,Cc1nn(C)c(Oc2ccc(C#N)cc2F)c1-c1c(F)cccc1Cl [compound 116],99%
9,Cc1nn(C)c(Oc2ccc(C#N)cc2F)c1-c1ccc(Cl)cc1F [compound 119],94%
10,Cc1nn(C)c(Nc2c(Cl)cc(F)cc2Br)c1-c1ccc(F)cc1F [compound 120],94%
11,Cc1nn(C)c(Nc2ccc(F)cc2Cl)c1-c1ccc(Cl)cc1Cl [compound 125],0%
12,Cc1nn(C)c(Oc2ccc(C#N)cc2Cl)c1-c1ccc(Cl)cc1Cl [compound 131],0%
